This note sets out measurements from patent US9073855B2, “BCL-2 selective apoptosis-inducing agents for the treatment of cancer and immune diseases” (AbbVie Inc., priority 2008, dated 2015).

The term pKi denotes the Ki on a negative log10 scale, so that one unit is a factor of ten. A higher pKi goes with a low Ki.

In one test the target is GST-Bcl-2 (Homo sapiens, UniProt P10415). Put plainly: TR-FRET binding assay, GST-Bcl-2 with F-Bak peptide probe. The conditions noted are these: for pKi: TR-FRET Binding Affinity; for Binding selectivity ratio (Bcl-XL Ki/Bcl-2 Ki): ratio of TR-FRET Ki values, Bcl-XL over Bcl-2. In a few lines:
(§1)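 Displacement of a fluorescein-labelled Bak peptide from the GST-tagged protein was followed by time-resolved FRET with a terbium anti-GST donor after 3 h incubation at room temperature. Inhibition constants were calculated with Wang's equation.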

The target of the next test is GST-Bcl-XL (Homo sapiens, UniProt Q07817). Put plainly: TR-FRET binding assay, GST-Bcl-XL with F-Bak peptide probe. The following applies: TR-FRET Binding Affinity. In a few lines:
as §1
(Time-resolved FRET reads energy transfer from a long-lived donor to a nearby acceptor.)

The mark [1] stands for this setting: GST-Bcl-XL, F-Bak peptide probe.

Molecules are shown by their SMILES. pKi: −log10 of the molar value.

Sequence of GST-Bcl-2 (P10415 whole entry): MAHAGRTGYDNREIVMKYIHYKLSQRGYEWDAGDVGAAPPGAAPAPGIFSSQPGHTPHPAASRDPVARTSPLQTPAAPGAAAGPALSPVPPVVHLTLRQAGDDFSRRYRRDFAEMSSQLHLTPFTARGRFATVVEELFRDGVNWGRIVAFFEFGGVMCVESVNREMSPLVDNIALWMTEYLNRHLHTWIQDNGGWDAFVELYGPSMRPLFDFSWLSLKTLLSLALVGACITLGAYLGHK
Sequence of GST-Bcl-XL (Q07817 whole entry): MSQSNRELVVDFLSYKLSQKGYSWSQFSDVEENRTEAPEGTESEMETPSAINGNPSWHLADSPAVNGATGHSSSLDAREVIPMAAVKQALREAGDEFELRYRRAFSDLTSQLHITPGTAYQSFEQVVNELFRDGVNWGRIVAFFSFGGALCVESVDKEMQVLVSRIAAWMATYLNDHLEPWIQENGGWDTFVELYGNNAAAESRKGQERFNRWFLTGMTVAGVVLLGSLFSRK

For `CN(C)CC(=O)N1CC[C@@H](Nc2ccc(S(=O)(=O)NC(=O)c3ccc(N4CCN(CC5=C(c6ccc(Cl)cc6)CC(C)(C)CC5)CC4)cc3Oc3cccc4[nH]cnc34)cc2[N+](=O)[O-])C1` [Example 430, 2-(1H-benzimidazol-4-yloxy)-4-(4-{[2-(4-chlorophenyl)-4,4-dimethylcyclohex-1-en-1-yl]methyl}piperazin-1-yl)-N-[(4-{[(3R)-1-(N,N-dimethylglycyl)pyrrolidin-3-yl]amino}-3-nitrophenyl)sulfonyl]benzamide], the negative logarithm of the Ki (pKi) on GST-Bcl-2 (GST-Bcl-2, F-Bak peptide probe) is more than 11.00; at GST-Bcl-XL (setting [1]) it was 9.00. Moreover, at GST-Bcl-2, the “Binding selectivity ratio (Bcl-XL Ki/Bcl-2 Ki)” value (“Binding selectivity ratio” below) came out at 99.8.
For `CC1(C)CCC(CN2CCN(c3ccc(C(=O)NS(=O)(=O)c4ccc(NCC5CN(CC#N)CCO5)c([N+](=O)[O-])c4)c(Oc4cccc5[nH]cnc45)c3)CC2)=C(c2ccc(Cl)cc2)C1` (stereo not shown) [Example 431, 2-(1H-benzimidazol-4-yloxy)-4-(4-{[2-(4-chlorophenyl)-4,4-dimethylcyclohex-1-en-1-yl]methyl}piperazin-1-yl)-N-{[4-({[4-(cyanomethyl)morpholin-2-yl]methyl}amino)-3-nitrophenyl]sulfonyl}benzamide], the pKi is more than 11.00 at GST-Bcl-2 (GST-Bcl-2, F-Bak peptide probe) and 8.17 on GST-Bcl-XL (setting [1]). Besides, the “Binding selectivity ratio” value at GST-Bcl-2 was 677.4.
On the same counts, the results for `CC1(C)CCC(CN2CCN(c3ccc(C(=O)NS(=O)(=O)c4ccc(NCC5CN(C6CC6)CCO5)c([N+](=O)[O-])c4)c(Oc4cccc5[nH]cnc45)c3)CC2)=C(c2ccc(Cl)cc2)C1` (stereo not shown) [Example 432, 2-(1H-benzimidazol-4-yloxy)-4-(4-{[2-(4-chlorophenyl)-4,4-dimethylcyclohex-1-en-1-yl]methyl}piperazin-1-yl)-N-[(4-{[(4-cyclopropylmorpholin-2-yl)methyl]amino}-3-nitrophenyl)sulfonyl]benzamide] are 10.64, 8.03 and 408.8.
In the case of `CC1(C)CCC(CN2CCN(c3ccc(C(=O)NS(=O)(=O)c4ccc(NCC5CN(C6COC6)CCO5)c([N+](=O)[O-])c4)c(Oc4cccc5[nH]cnc45)c3)CC2)=C(c2ccc(Cl)cc2)C1` (stereo not shown) [Example 433, 2-(1H-benzimidazol-4-yloxy)-4-(4-{[2-(4-chlorophenyl)-4,4-dimethylcyclohex-1-en-1-yl]methyl}piperazin-1-yl)-N-[(3-nitro-4-{[(4-oxetan-3-ylmorpholin-2-yl)methyl]amino}phenyl)sulfonyl]benzamide], the pKi on GST-Bcl-2 (GST-Bcl-2, F-Bak peptide probe) was more than 11.00; on GST-Bcl-XL (setting [1]), 8.64.
Consider `CC1(C)CCC(CN2CCN(c3ccc(C(=O)NS(=O)(=O)c4cnc(O[C@@H]5CCN(C(CF)CF)C5)c(Cl)c4)c(Oc4cccc5[nH]ncc45)c3)CC2)=C(c2ccc(Cl)cc2)C1` [Example 434, N-{[5-chloro-6-({(3R)-1-[2-fluoro-1-(fluoromethyl)ethyl]pyrrolidin-3-yl}oxy)pyridin-3-yl]sulfonyl}-4-(4-{[2-(4-chlorophenyl)-4,4-dimethylcyclohex-1-en-1-yl]methyl}piperazin-1-yl)-2-(1H-indazol-4-yloxy)benzamide], for which the pKi is 10.28 on GST-Bcl-2 (GST-Bcl-2, F-Bak peptide probe) and 7.12 on GST-Bcl-XL (setting [1]). Moreover, the “Binding selectivity ratio” value at GST-Bcl-2 is reported as 1459.4.
Take `CC1(C)CCC(CN2CCN(c3ccc(C(=O)NS(=O)(=O)c4ccc(N[C@@H]5CCN(C(CF)CF)C5)c([N+](=O)[O-])c4)c(Oc4cccc5[nH]ncc45)c3)CC2)=C(c2ccc(Cl)cc2)C1` [Example 435, 4-(4-{[2-(4-chlorophenyl)-4,4-dimethylcyclohex-1-en-1-yl]methyl}piperazin-1-yl)-N-{[4-({(3R)-1-[2-fluoro-1-(fluoromethyl)ethyl]pyrrolidin-3-yl}amino)-3-nitrophenyl]sulfonyl}-2-(1H-indazol-4-yloxy)benzamide]: the negative logarithm of the Ki (pKi) on GST-Bcl-2 (GST-Bcl-2, F-Bak peptide probe) is 10.77; on GST-Bcl-XL (setting [1]), 7.48.
For `CC1(C)CCC(CN2CCN(c3ccc(C(=O)NS(=O)(=O)c4ccc(NC5CCN(C6CC6)CC5)c([N+](=O)[O-])c4)c(Oc4cccc5[nH]ncc45)c3)CC2)=C(c2ccc(Cl)cc2)C1` [Example 436, 4-(4-{[2-(4-chlorophenyl)-4,4-dimethylcyclohex-1-en-1-yl]methyl}piperazin-1-yl)-N-({4-[(1-cyclopropylpiperidin-4-yl)amino]-3-nitrophenyl}sulfonyl)-2-(1H-indazol-4-yloxy)benzamide], the pKi at GST-Bcl-2 is 10.96; on GST-Bcl-XL, 8.19.
In the same order, the values of `CN(C)CC(=O)N1CCO[C@H](CNc2ccc(S(=O)(=O)NC(=O)c3ccc(N4CCN(CC5=C(c6ccc(Cl)cc6)CC(C)(C)CC5)CC4)cc3Oc3cccc4[nH]cnc34)cc2[N+](=O)[O-])C1` [Example 437, 2-(1H-benzimidazol-4-yloxy)-4-(4-{[2-(4-chlorophenyl)-4,4-dimethylcyclohex-1-en-1-yl]methyl}piperazin-1-yl)-N-{[4-({[(2R)-4-(N,N-dimethylglycyl)morpholin-2-yl]methyl}amino)-3-nitrophenyl]sulfonyl}benzamide] are more than 11.00 and 9.29.
On the same counts, the results for `CN(C)CC(=O)N1CCO[C@@H](CNc2ccc(S(=O)(=O)NC(=O)c3ccc(N4CCN(CC5=C(c6ccc(Cl)cc6)CC(C)(C)CC5)CC4)cc3Oc3cccc4[nH]cnc34)cc2[N+](=O)[O-])C1` [Example 438, 2-(1H-benzimidazol-4-yloxy)-4-(4-{[2-(4-chlorophenyl)-4,4-dimethylcyclohex-1-en-1-yl]methyl}piperazin-1-yl)-N-{[4-({[(2S)-4-(N,N-dimethylglycyl)morpholin-2-yl]methyl}amino)-3-nitrophenyl]sulfonyl}benzamide] are more than 11.00 and 9.46.
On to `CC1(C)CCC(CN2CCN(c3ccc(C(=O)NS(=O)(=O)c4ccc(NCC5CCOC5)c([N+](=O)[O-])c4)c(Oc4cccc5[nH]cnc45)c3)CC2)=C(c2ccc(Cl)cc2)C1` (stereo not shown) [Example 439, 2-(1H-benzimidazol-4-yloxy)-4-(4-{[2-(4-chlorophenyl)-4,4-dimethylcyclohex-1-en-1-yl]methyl}piperazin-1-yl)-N-({3-nitro-4-[(tetrahydrofuran-3-ylmethyl)amino]phenyl}sulfonyl)benzamide], for which the pKi was more than 11.00 at GST-Bcl-2 and 7.82 at GST-Bcl-XL.
On the same counts, the results for `CO[C@H]1CC[C@H](CNc2ccc(S(=O)(=O)NC(=O)c3ccc(N4CCN(CC5=C(c6ccc(Cl)cc6)CC(C)(C)CC5)CC4)cc3Oc3cccc4[nH]cnc34)cc2[N+](=O)[O-])CC1` [Example 440, Trans-2-(1H-benzimidazol-4-yloxy)-4-(4-{[2-(4-chlorophenyl)-4,4-dimethylcyclohex-1-en-1-yl]methyl}piperazin-1-yl)-N-[(4-{[(4-methoxycyclohexyl)methyl]amino}-3-nitrophenyl)sulfonyl]benzamide] are more than 11.00 and 7.34.
In the same order, the values of `CC1(C)CCC(CN2CCN(c3ccc(C(=O)NS(=O)(=O)c4ccc(NCC5(F)CCOCC5)c([N+](=O)[O-])c4)c(Oc4cccc5[nH]cnc45)c3)CC2)=C(c2ccc(Cl)cc2)C1` [Example 441, 2-(1H-benzimidazol-4-yloxy)-4-(4-{[2-(4-chlorophenyl)-4,4-dimethylcyclohex-1-en-1-yl]methyl}piperazin-1-yl)-N-[(4-{[(4-fluorotetrahydro-2H-pyran-4-yl)methyl]amino}-3-nitrophenyl)sulfonyl]benzamide] are more than 11.00 and 7.62.
